How the values of series [1] were obtained:
(§1) Plasma from 9 individual male fish (500 µL/individual) was pooled to yield 3 samples for PPCP analysis. […] Plasma from 6 individual carp (2.3–3.5 g) from each location was selected for PPCP analysis. […] Plasma samples were frozen (−80 °C) until analysis.
(§2) A total of 20 fish plasma samples from the pooled caged fish (7) and the wild fish (13) along with 12 water samples were selected for analysis. […] A full list of analytes is provided in Supplementary Information. Mass labelled^13C-, or deuterated surrogate internal standards were used for quantification of all analytes via the isotope dilution/surrogate standard quantitation method. Prior to extraction and/or clean-up procedures, aqueous samples were adjusted to pH 2.0, spiked with extraction surrogate standards, then adjusted to pH 4 using tetrasodium ethylenediamine-tetraacetate dihydrate. Plasma samples (2.3–2.5 g) were spiked with extraction surrogate standards, sonicated with 20 mL acetonitrile, then diluted with ultra-pure water to 200 mL. The extracts were cleaned up by solid phase extraction using Oasis HLB cartridges (Waters Ltd. Mississauga ON), filtered, and analyzed by liquid chromatography-electrospray ionization-tandem mass spectrometry (LC/ESI-MS/MS) in positive or negative ionization mode. The analysis of the complete list of analytes (SI Table S1) required a total of five instrumental runs.
(§3) Quality assurance steps included analysis of lab blanks for water and plasma along with matrix recovery spikes. […] Detection limits (DLs) were defined as lowest calibration level adjusted to the maximal sample size or 3 times the signal of the noise in the target channel converted to an equivalent sample, whichever was greater. […] Where analytes were detected in two or more samples of the same species or series of water samples, non-detect values were converted to ½ the DL value for reporting purposes.

How the values of series [2] were obtained: as §1, §2
The source holds these as a separate data set.

Details of series [3]: method as in US EPA Chemistry Dashboard. The note with it: ref US EPA Chemistry Dashboard; cited from earlier work.
The conditions of series [4]: cited from earlier work.
For series [5] the following is noted: cited from earlier work; for Salmon (whole body) concentration: Table S7, ref Meador et al. (2016).
For series [6] the following is noted: cited from earlier work. The source holds these as a separate data set.
Another series in a line: in vivo. The note with it: goldfish (Carassius auratus), in vivo.
Text: Cages were visited weekly, and fish (13/cage) were fed during the visits (20 g/cage). All animal experiments were in accordance with CCAC guidance and approved by the GLLFAS-WSTD Animal Care Committee (Government of Canada). Further details on the caging and preparation of the fish and animal care protocols are provided in Simmons et al.[32]. […] A fourth site, Jordan Harbour (JH), a widening of 20 Mile Creek adjacent to Lake Ontario near Jordan ON, served as a reference site. Mass and fork length were measured and recorded. Plasma collection and storage is described in the SI. Plasma of caged goldfish was divided for proteome, metabolome and PPCP analysis. Due to limited volumes, pooled samples of plasma from 25 individual fish (50 µL/individual) was pooled to yield one sample from at each location for PPCP analysis.
as §2, §3

The nature of series [7]: Plasma bioaccumulation factor (BAFP), goldfish. In kind it is in vivo, goldfish (Carassius auratus). Particulars: CPM2; water sample of August 2012. Here is the method: Bioaccumulation factor (BAFP) was calculated as concentration in fish plasma (ng/g × 1000) divided by concentration in water (ng/L). Two widely used modeling approaches for predicting organic contaminant bioaccumulation were assessed: the BCF-BAF model for whole body BAFs[53] and the fish-plasma concentration calculation of Huggett et al.[35] modified by Berninger et al.[54]. The latter involves estimating an octanol-water partition coefficient (Kow) adjusted for fraction ionized (log D), using the pKa value to adjust log Kow[54] taking into account the pH of CPM waters. Further information on the calculation of log D, blood-water partitioning (PBW), and plasma concentrations (FPC) is given in the SI.

The mark [8] stands for this setting: Jordan Harbour brown bullhead, wet weight.
[9] abbreviates: carp (Cyprinus carpio), in vivo.
The mark [10] stands for this setting: female, carp (Cyprinus carpio), in vivo.
Setting [11] is: male, carp (Cyprinus carpio), in vivo.
The mark [12] stands for this setting: male, goldfish (Carassius auratus), in vivo.

Molecules are shown by their SMILES. Where two headings read alike, the source gives them in different places. Some results are limits rather than exact numbers.

Take `O=C(Nc1ccc(Cl)cc1)Nc1ccc(Cl)c(Cl)c1` [Triclocarban]: the “Cootes carp plasma, range of concentrations” value in series [1] (Cootes Paradise Marsh, range) fell in the range of 0.32 to 3.35 ng/g. The “plasma concentration, CPM-C 01” value in series [1] (Cootes carp 01, 2011, male, wet weight) turned out to be 0.317 ng/g. For the same compound, the “plasma concentration, CPM-C 2” value in series [1] (Cootes carp 2, Sep 27, 2011, male, wet weight) is reported as 0.431 ng/g. Further, the “plasma concentration, CPM-C 10” value in series [1] (Cootes carp 10, Sep 28, 2011, female, wet weight) is on record as 0.453 ng/g. For the same compound, the “plasma concentration, CPM-C 13” value in series [1] (Cootes carp 13, Sep 28, 2011, female, wet weight) is 0.468 ng/g. The “plasma concentration, CPM-C 20” value in series [1] (Cootes carp 20, 2011, male, wet weight) turned out to be 0.324 ng/g. The “plasma concentration, CPM-C 36” value in series [1] (Cootes carp 36, Oct 3, 2011, female, wet weight) was determined as 3.35 ng/g. Besides, the “Carp plasma concentration, this study (range)” value in series [1] (Table S7) lay within 0.32 to 3.35 ng/g. In series [1] (Table S8), the “plasma concentration, carp, this study (mean)” value is on record as 0.89 ng/g wet weight or ng/mL for plasma and the “plasma concentration, goldfish, this study (mean)” value is reported as “< mdl”. The “plasma concentration, JH-BB” value in series [2] (setting [8]) was less than 1.14 ng/g. In series [3], the “log Kow” value was 4.90. For the same compound, the “BAFP in carp plasma, median” value in series [4] is given as 6.9. The “plasma concentration, crucian carp & common carp” value in series [4] (mean ± SD, ref Tanoue et al.16) is 0.34±0.20 ng/g wet weight or ng/mL for plasma. The “Salmon (whole body) concentration” value in series [5] is reported as 6.5 ng/g. In series [5] (ref Meador et al. 18), the “whole fish concentration, salmon” value is 6.5 ng/g wet weight or ng/mL for plasma. Moreover, the “whole fish concentration, sculpin” value in series [6] (ref Meador et al. 18) was “< mdl”.
For the compound `CC1CCc2cc(F)cc3c(=O)c(C(=O)O)cn1c23` (stereo not shown) [Flumequine], in “in vivo” (caged goldfish plasma, range of concentrations), the concentration at 21 days fell in the range of 0.16 to 1.37 ng/g. The compound also came in with a concentration at 21 days in “in vivo” (plasma concentration, CPM1 caged) of 1.1 ng/g. The compound also yielded a concentration at 21 days in the series “in vivo” (plasma concentration, CPM2 caged) of 0.146 ng/g. In the series “in vivo” (plasma concentration, CPM3 caged), the concentration at 21 days was 0.344 ng/g. Moreover, the concentration at 21 days in the series “in vivo” (plasma concentration, JH caged) is less than 0.3 ng/g. For the same compound, in series [1] (setting [9]), the “Cootes carp plasma, range of concentrations” value was 0.16 to 1.23 ng/g and the “plasma concentration, carp, this study (mean)” value is given as 0.70 ng/g wet weight or ng/mL for plasma. Also, in series [1] (setting [10]), the “plasma concentration, CPM-C 10” value turned out to be 1.23 ng/g; the “plasma concentration, CPM-C 13” value stood at 1.14 ng/g; the “plasma concentration, CPM-C 36” value amounted to 0.698 ng/g; the “plasma concentration, JH-C 73” value is reported as 0.155 ng/g. Further, in series [1] (setting [10]), the “plasma concentration, JH-C 75” value was 0.474 ng/g and the “plasma concentration, JH-C 82” value stood at 0.151 ng/g. In series [1] (setting [11]), the “plasma concentration, CPM-C 01” value is on record as 0.158 ng/g; the “plasma concentration, CPM-C 2” value came to 0.799 ng/g; the “plasma concentration, CPM-C 20” value was 0.162 ng/g; the “plasma concentration, JH-C 54” value is 0.159 ng/g. Also, in series [1] (setting [11]), the “plasma concentration, JH-C 74” value was 0.160 ng/g and the “plasma concentration, JH-C 78” value is recorded as 0.252 ng/g. In series [1] (setting [12]), the “plasma concentration, CPM wild-01” value was 1.37 ng/g; the “plasma concentration, CPM wild-02” value was 0.188 ng/g; the “plasma concentration, CPM wild-03” value is given as 0.157 ng/g; the “plasma concentration, goldfish, this study (mean)” value is reported as 0.57 ng/g wet weight or ng/mL for plasma. For the same compound, the “wild goldfish plasma, range of concentrations” value in series [1] (setting [12]) was 0.15 to 1.1 ng/g. In addition, the “plasma concentration, JH-BB” value in series [2] (Brown Bullhead (Ameiurus nebulosus), in vivo) was 0.622 ng/g. In addition, in series [7], the “BAFP, CPM2 goldfish caged” value turned out to be 38 L/kg.
Turning to `Cn1c(=O)c2c(ncn2C)n(C)c1=O` [Caffeine], the concentration at 21 days in the series “in vivo” (plasma concentration, CPM1 caged, CPM1, 07-2014, pooled plasma, wet weight) is 3.38 ng/g; in “in vivo” (plasma concentration, CPM2 caged, CPM2, 07-2014, pooled plasma, wet weight), 1.46 ng/g; in the series “in vivo” (plasma concentration, CPM3 caged, CPM3, 07-2014, pooled plasma, wet weight), 1.53 ng/g; in the series “in vivo” (plasma concentration, JH caged, Jordan Harbour reference site, 07-2014, pooled plasma, wet weight), less than 3 ng/g. Moreover, in series [1] (Jordan Harbour carp 54, Nov 7, 2011, male, wet weight), the “plasma concentration, JH-C 54” value is listed as less than 3.18 ng/g. Moreover, in series [1] (Jordan Harbour carp 73, Nov 7, 2011, female, wet weight), the “plasma concentration, JH-C 73” value is recorded as less than 3.09 ng/g. Further, the “plasma concentration, JH-C 74” value in series [1] (Jordan Harbour carp 74, Nov 7, 2011, male, wet weight) is on record as less than 3.19 ng/g. Besides, the “plasma concentration, JH-C 75” value in series [1] (Jordan Harbour carp 75, Nov 7, 2011, female, wet weight) is less than 4.52 ng/g. In addition, the “plasma concentration, JH-C 78” value in series [1] (Jordan Harbour carp 78, Nov 7, 2011, male, wet weight) is given as less than 3.13 ng/g. In series [1] (Jordan Harbour carp 82, Nov 7, 2011, female, wet weight), the “plasma concentration, JH-C 82” value is given as less than 3.01 ng/g. Also, the “plasma concentration, CPM wild-02” value in series [1] (wild goldfish sample 02, 2012, wet weight) was determined as 1.525 ng/g. Moreover, in series [1] (wild goldfish sample 03, 2012, wet weight), the “plasma concentration, CPM wild-03” value was 1.565 ng/g. The “plasma concentration, JH-BB” value in series [2] (setting [8]) was less than 5.7 ng/g. In series [5], the “Salmon (whole body) concentration” value is reported as 18 ng/g. The “Sculpin (whole body) concentration” value in series [6] (Table S7, ref Meador et al. (2016)) was 13 ng/g.

The values above are taken from PMC5717258, “Bioaccumulation of pharmaceuticals and personal care product chemicals in fish exposed to wastewater effluent in an urban wetland” (Scientific Reports, 2017).
